The values that follow come from US8193225B2, “Isoxazole amides, derivatives and methods of chemical induction of neurogenesis” (priority 2006, dated 2012).

Entries after “also recorded” stand apart in the source; their conditions may differ.

For assay [1], the system named is human CD133(+) brain tumor stem cells (BTSCs). The experiment in a line: growth, secondary neurospheres and BrdU uptake of BTSCs. Type of assay: cell-based. The protocol: CD133(+) brain tumor stem cells (BTSCs) from an explanted human tumor specimen were treated with EGF/FGF (FIG. 10A) or Isx-9 (20 μM) (FIG. 10B) for 7 days before returning to EGF/FGF (FIG. 10C) or EGF/FGF plus Isx-9 conditions (FIG. 10D) for an additional 2 days.
The number and size of neurospheres observed in 7-day pretreated BTSCs with DMSO (vehicle), EGF/FGF, or Isx-9 that were dissociated and re-plated to form secondary neurospheres (1000 cells/well) under various conditions is shown in FIG. 10F.

The test system of a further assay is MEF2. Briefly: gel shift assay of MEF2 binding to MEF2 response element of NR1 gene. Type of assay: cell-based, rat. The note with it: versus vehicle-treated cells. The procedure:
Protein blotting, immunoprecipitation, and gel shift assay. For protein blotting analysis, whole cell lysates were prepared from HCN cells using RIPA buffer (Tris-HCl, 50 mM, pH 7.4; NP-40, 1%; Na-deoxycholate, 0.25%; NaCl, 150 mM; EDTA, 1 mM; PMSF, 1 mM; aprotinin, leupeptin, pepstatin, 1 mg/ml; Na3VO4, 1 mM; NaF, 1 mM). For nuclear and cytoplasmic extracts, HCNs were lysed in hypotonic buffer (Hepes, 10 mM, pH 8; MgCl2, 1.5 mM; KCl, 10 mM; DTT, 1 mM). Nuclei was then isolated and resuspended in the same buffer with NaCl, 420 mM; EDTA, 0.2 mM; glycerol, 25%; NP-40, 1%; PMSF, 1 mM; aprotinin, leupeptin, pepstatin, 1 mg/ml. Protein concentration in centrifugation-clarified cell lysates were measured by the BCA Protein Assay Kit (Pierce) and equal amounts of protein were separated on a 4-12% SDS-PAGE and transferred to Hybond PVDF (Amersham Biosciences). Protein blots were done using the NuPage gel and transfer system with 4-20% Tris-Bis gels (Invitrogen). […]

The subject of assay [2] is adult mouse whole brain (MWB) neural progenitor cells. The experiment in a line: neuronal differentiation of adult mouse whole brain (MWB) neural progenitor cells. Type of assay: cell-based. Conditions: 4 d cultures. The protocol:
Neural stem cell culture, in vitro differentiation, and CaMK inhibitor studies. The hippocampal neural stem/progenitor (NSC) line used in this study (HCN cells) were originally isolated from adult (8-10 wks old) female Fisher 344 rats and have been characterized previously (Gage et al., 1995; Palmer et al., 1997). HCN cells were cultured in DMEM:F12 (Omega Scientific) with N2 supplement (Invitrogen) and basic fibroblast growth factor (20 ng/ml FGF-2) (PeproTech). The mouse whole brain neural stem/progenitors (MWB) were derived from adult (8-10 wks old) C57BL/6 mice that have been characterized previously (Ray and Gage, 2006). The P19CL6 cells is a sub-line of P19EC cells, originally generated by the late Dr. Habara-Ohkubo (Habara-Ohkubo, 1996), were grown in MEM-α (Invitrogen) containing 10% fetal bovine serum (Omega). HCN cells or MWB neural progenitors were trypsinized and plated into N2 medium (Invitrogen) containing FGF-2 (HCN cells) or FGF-2/EGF/heparin (MWB) overnight, and switched to fresh N2 medium without FGF-2 and Isx-9 (20 μM for HCN cells and 5 μM for MWB) was added for 4 d. To test if Isx-9 could block competing astrocyte or oligodendrocyte differentiation, standard gliogenic conditions were used as described previously (Hsieh et al., 2004). […]

In assay [3] the test system is human CD133(+) brain tumor stem cells (BTSCs). Briefly: differentiation of CD133+ brain tumor stem cells (BTSCs). The class given is cell-based. Conditions: 20 μM, within 4 days. The procedure: CD133+ glioblastoma brain tumor stem cells (BTSCs) from an explanted human tumor specimen were treated with 20 μM Isx-9 (FIG. 9C) or vol/vol DMSO (vehicle) control (FIG. 9B).

Assay [4] deals with HCN cells. Briefly: RT-PCR and protein blotting of gene expression in HCN cells. Type of assay: cell-based, rat.
Assay [5] has as its system HCN cells. Briefly: in vitro neuronal differentiation of HCN cells (morphology, Tuj1 staining). The class given is cell-based, rat.

Take `O=C(NC1CC1)c1cc(-c2cccs2)on1` [Isx-9, N-cyclopropyl-5-(thiophen-2-yl)isoxazole-3-carboxamide]: in assay [1] (7-day exposure, 20 μM), the “cell attachment and differentiation of BTSCs after growth factor challenge” value is “promotes an irreversible state of cell attachment and differentiation”. Besides, the “number and size of secondary neurospheres” value in assay [1] (7-day pre-treatment, compared to EGF/FGF pre-treatment) was “mediates a decrease in the average number and size of each secondary neurosphere”. Further, the “DNA synthesis/proliferation (BrdU uptake) of BTSCs” value in assay [1] (7 days pre-treatment, EGF/FGF added back for 24 hours) is “leads to decreased DNA synthesis/proliferation”. Further, the “total MEF2 binding to MEF2 response element within the NR1 gene” value in the assay on MEF2 is reported as “similar”. Moreover, the “neuronal differentiation of MWB neural progenitors” value in assay [2] is reported as “promotes neuronal differentiation”. The “neuronal differentiation of BTSCs” value in assay [3] was “triggers a pro neuronal-differentiation effect; also recorded: leads to more differentiated (adherent and phase-dark with neuronal-like processes) cells”. In the assay with HCN cells [4] (2- and 4-days, compared to vehicle), the “MEF2 mRNA levels” value was “up-regulated”. Moreover, the “expression of SOX2” value in the assay on HCN cells [4] (HCN cells) is recorded as “decreased expression”. Moreover, the “neuronal protein expression (protein blotting)” value in the assay with HCN cells [4] (HCN cells/NPCs) is listed as “increased Tuj1 protein”. Further, in the assay on HCN cells [4] (protein blotting time-course, up to 64 hours), the “MEF2A and MEF2C protein levels” value is on record as “unchanged”. In the assay with HCN cells [5] (20 μM, 4 d cultures), the “neuronal differentiation of HCN cells/NPCs” value is given as “promotes robust neuronal differentiation”. The “Tuj1+ differentiation” value in the assay on HCN cells [5] (HCN cells, by 4 d) is recorded as over 50%.
